± gives the expanded uncertainty stated by the source.
Key:
[1] = Crystal; DTA
[2] = Molar enthalpy of transition or fusion; details: Crystal; DSC

## C[N+](C)(C)CCOC(=O)CCC(=O)O.[Cl-] [hydrogen choline chloride succinate]
[1]
  Normal melting temperature: 147.40 ± 0.96 °C
[2]
  Molar enthalpy of transition or fusion: 37.1 ± 2.1 kJ/mol

## CC(=O)[O-].C[N+](C)(C)CCO [choline acetate]
[1]
  Normal melting temperature: 67.60 ± 0.96 °C
[2]
  Molar enthalpy of transition or fusion: 16.5 ± 1.9 kJ/mol

Reference: the NIST ThermoML archive (doi:10.1016/j.jct.2013.07.025)
